Key:
[1] = molecular target: T1, Heat shock protein 75 kDa, mitochondrial (Homo sapiens, UniProt Q12931); test: Inhibition of PU-H71-FITC binding to recombinant wild-type human TRAP1 expressed in Escherichia coli BL21 (DE3) measured after 2 hrs by fluorescence polarization assay
T1 sequence (Q12931 whole entry): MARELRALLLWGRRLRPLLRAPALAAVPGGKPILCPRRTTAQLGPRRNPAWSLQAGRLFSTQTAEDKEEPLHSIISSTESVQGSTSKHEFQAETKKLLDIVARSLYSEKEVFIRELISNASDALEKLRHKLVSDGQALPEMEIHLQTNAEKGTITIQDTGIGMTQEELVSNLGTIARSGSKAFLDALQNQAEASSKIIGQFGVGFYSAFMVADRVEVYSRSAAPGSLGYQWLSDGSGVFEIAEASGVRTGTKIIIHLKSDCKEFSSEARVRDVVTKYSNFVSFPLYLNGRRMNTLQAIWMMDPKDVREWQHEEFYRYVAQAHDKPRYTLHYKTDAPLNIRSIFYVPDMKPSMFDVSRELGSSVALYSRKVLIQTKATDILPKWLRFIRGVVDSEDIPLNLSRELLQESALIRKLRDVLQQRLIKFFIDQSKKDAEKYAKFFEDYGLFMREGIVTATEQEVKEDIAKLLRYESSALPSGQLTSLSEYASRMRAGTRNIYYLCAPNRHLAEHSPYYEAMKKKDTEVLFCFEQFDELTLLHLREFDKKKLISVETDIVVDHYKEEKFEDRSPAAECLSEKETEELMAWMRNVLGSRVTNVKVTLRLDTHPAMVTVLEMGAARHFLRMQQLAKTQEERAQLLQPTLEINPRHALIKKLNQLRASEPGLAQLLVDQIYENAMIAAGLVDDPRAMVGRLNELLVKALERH

Heat shock protein HSP90 [2] = molecular target: T2, Heat shock protein HSP90 (Homo sapiens, UniProt P07900+P08238); test: Inhibition of HSP90 in human PC3 cells at 5 uM measured after 2 to 12 hrs by Western blot analysis; format: cell-based; details: pc-3, 5 µM
Heat shock protein HSP90 [3] = molecular target: T2, Heat shock protein HSP90; test: Inhibition of HSP90 in human PC3 cells assessed as change in Hsp70 expression at 5 uM measured after 2 to 12 hrs by Western blot analysis; format: cell-based; details: pc-3, 5 µM
Hepatocyte = test: Cytotoxicity against mouse hepatocytes assessed as reduction in cell viability up to 3 uM measured after 24 hrs by MTT assay; format: cell-based
Heat shock protein HSP90 [4] = molecular target: T2, Heat shock protein HSP90; test: Inhibition of HSP90 in human PC3 cells assessed as change in Chk1 expression at 5 uM measured after 2 to 12 hrs by Western blot analysis; format: cell-based; details: pc-3, 5 µM
Heat shock protein HSP90 [5] = molecular target: T2, Heat shock protein HSP90; test: Inhibition of HSP90 in human PC3 cells assessed as change in Cdk4 expression at 5 uM measured after 2 to 12 hrs by Western blot analysis; format: cell-based; details: pc-3, 5 µM
Heat shock protein HSP90 [6] = molecular target: T2, Heat shock protein HSP90; test: Inhibition of HSP90 in human PC3 cells assessed as change in AKT expression at 5 uM measured after 2 to 12 hrs by Western blot analysis; format: cell-based; details: pc-3, 5 µM

Compound | IC50 [1] | inhibition (INH) (Heat shock protein HSP90 [2]) | inhibition (INH) (Heat shock protein HSP90 [3]) | Activity (Hepatocyte) | inhibition (INH) (Heat shock protein HSP90 [4]) | inhibition (INH) (Heat shock protein HSP90 [5]) | inhibition (INH) (Heat shock protein HSP90 [6])
Nc1ncnc2c1nc(Sc1cc3c(cc1I)OCO3)n2CCCCCCCCCC[P+](c1ccccc1)(c1ccccc1)c1ccccc1.[Br-] | 1880 nM | Not Active | Not Active | Non-Toxic | Not Active | Not Active | Not Active
Nc1ncnc2c1nc(Sc1cc3c(cc1I)OCO3)n2CCCCCC[P+](c1ccccc1)(c1ccccc1)c1ccccc1 | 794 nM |  |  |  |  |  | 
Nc1ncnc2c1nc(Sc1cc3c(cc1I)OCO3)n2CCCCCCCC[P+](c1ccccc1)(c1ccccc1)c1ccccc1 | 872 nM |  |  |  |  |  | 

— ChEMBL document CHEMBL4602687, “Dual Binding to Orthosteric and Allosteric Sites Enhances the Anticancer Activity of a TRAP1-Targeting Drug” (J Med Chem, 2020)
